Data set [1] deals with 5-hydroxytryptamine receptor 2A (Homo sapiens, UniProt P28223). Briefly: Displacement of radioligand from human cloned 5HT2A receptor.
Data set [2] in a line: Half life in rat at 1 mg/kg, iv. The data set is classed as ADME, organism-based. The note with it: in vivo. Also on record: dose 1 mg/kg, route intravenous.
The target in data set [3] is 5-hydroxytryptamine receptor 4 (Homo sapiens, UniProt Q13639). Briefly: Displacement of radioligand from human cloned 5HT4 receptor.
Sequence of 5-hydroxytryptamine receptor 4 (Q13639 whole entry): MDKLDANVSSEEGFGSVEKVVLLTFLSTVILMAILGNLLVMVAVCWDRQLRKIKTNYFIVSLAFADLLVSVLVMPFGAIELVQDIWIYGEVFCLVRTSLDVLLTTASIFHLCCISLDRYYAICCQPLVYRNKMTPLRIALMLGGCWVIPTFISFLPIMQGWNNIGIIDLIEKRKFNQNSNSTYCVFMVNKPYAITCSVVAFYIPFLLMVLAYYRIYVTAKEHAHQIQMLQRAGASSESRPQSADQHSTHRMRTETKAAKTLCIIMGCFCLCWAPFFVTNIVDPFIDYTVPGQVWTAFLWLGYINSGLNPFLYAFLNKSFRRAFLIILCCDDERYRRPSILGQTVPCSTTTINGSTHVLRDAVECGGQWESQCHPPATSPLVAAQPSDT
Data set [4] addresses T1, 5-hydroxytryptamine receptor 1A (Homo sapiens, UniProt P08908).
T1 sequence (P08908 whole entry): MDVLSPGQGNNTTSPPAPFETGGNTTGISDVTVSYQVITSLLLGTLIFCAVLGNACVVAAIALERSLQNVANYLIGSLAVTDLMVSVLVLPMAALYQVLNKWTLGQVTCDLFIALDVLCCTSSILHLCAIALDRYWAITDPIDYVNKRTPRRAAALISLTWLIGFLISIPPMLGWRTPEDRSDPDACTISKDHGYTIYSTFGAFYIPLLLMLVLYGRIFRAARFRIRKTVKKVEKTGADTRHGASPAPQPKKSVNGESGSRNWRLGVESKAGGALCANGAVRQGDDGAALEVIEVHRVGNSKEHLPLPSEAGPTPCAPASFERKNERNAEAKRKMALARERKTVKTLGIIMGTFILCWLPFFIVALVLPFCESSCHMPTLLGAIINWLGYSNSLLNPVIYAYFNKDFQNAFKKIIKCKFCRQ

For data set [5], the target named is T2, 5-hydroxytryptamine receptor 1F (Homo sapiens, UniProt P30939).
T2 sequence (P30939 whole entry): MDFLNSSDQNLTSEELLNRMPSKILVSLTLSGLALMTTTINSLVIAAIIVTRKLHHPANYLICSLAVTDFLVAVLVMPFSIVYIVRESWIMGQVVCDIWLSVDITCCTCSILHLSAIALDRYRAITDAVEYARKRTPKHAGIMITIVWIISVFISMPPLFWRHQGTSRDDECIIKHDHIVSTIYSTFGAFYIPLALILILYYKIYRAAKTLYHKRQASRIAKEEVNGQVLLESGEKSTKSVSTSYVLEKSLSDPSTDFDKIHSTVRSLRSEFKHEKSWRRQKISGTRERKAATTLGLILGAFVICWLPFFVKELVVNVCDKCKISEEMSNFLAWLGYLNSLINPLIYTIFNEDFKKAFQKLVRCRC
In words: Displacement of radioligand from human cloned 5HT1F receptor.

The target of data set [6] is 5-hydroxytryptamine receptor 7 (Homo sapiens, UniProt P34969). In words: Displacement of radioligand from human cloned 5HT7 receptor.
Sequence of 5-hydroxytryptamine receptor 7 (P34969 whole entry): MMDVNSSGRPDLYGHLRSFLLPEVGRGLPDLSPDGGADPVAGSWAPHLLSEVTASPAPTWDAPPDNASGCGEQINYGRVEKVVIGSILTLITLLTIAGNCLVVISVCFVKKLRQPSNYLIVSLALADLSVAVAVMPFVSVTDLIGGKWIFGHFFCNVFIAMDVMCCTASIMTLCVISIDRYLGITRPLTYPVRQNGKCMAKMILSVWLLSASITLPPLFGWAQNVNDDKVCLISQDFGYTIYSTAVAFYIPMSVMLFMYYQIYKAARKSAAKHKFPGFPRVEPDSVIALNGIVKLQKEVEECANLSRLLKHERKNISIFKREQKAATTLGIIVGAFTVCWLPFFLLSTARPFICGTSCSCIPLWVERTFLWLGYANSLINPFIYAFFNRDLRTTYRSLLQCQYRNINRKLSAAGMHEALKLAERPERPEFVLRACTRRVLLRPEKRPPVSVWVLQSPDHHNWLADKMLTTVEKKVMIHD
The target of data set [7] is T3, 5-hydroxytryptamine receptor 1B (Homo sapiens, UniProt P28222).
T3 sequence (P28222 whole entry): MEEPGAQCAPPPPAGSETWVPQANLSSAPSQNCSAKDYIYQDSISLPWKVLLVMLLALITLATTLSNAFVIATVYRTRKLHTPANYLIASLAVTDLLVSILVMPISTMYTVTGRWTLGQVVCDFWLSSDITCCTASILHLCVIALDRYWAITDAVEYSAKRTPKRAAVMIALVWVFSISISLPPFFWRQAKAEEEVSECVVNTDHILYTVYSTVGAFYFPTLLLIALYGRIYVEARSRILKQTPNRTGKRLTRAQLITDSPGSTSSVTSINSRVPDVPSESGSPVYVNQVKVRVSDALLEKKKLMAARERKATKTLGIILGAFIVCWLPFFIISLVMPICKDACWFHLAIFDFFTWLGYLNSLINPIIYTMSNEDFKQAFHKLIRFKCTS
The target in data set [8] is 5-hydroxytryptamine receptor 1E (Homo sapiens, UniProt P28566). Briefly: Displacement of radioligand from human cloned 5HT1E receptor.
Sequence of 5-hydroxytryptamine receptor 1E (P28566 whole entry): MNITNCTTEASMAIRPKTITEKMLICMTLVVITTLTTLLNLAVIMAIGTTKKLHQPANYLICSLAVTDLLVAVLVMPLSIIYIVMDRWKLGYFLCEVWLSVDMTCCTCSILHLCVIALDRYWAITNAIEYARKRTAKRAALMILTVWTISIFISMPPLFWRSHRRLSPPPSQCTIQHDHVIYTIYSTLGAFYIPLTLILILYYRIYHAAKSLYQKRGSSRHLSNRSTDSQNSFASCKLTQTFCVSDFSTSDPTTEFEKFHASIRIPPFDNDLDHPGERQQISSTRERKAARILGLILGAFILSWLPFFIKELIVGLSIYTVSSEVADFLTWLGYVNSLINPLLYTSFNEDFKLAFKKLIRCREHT
A short description of data set [9]: Clearance in rat at 1 mg/kg, iv. Set-up: dose 1 mg/kg, route intravenous. Format: ADME, organism-based. The note with it: in vivo.
In data set [10] the target is D(2) dopamine receptor (Homo sapiens, UniProt P14416).
Sequence of D(2) dopamine receptor (P14416 whole entry): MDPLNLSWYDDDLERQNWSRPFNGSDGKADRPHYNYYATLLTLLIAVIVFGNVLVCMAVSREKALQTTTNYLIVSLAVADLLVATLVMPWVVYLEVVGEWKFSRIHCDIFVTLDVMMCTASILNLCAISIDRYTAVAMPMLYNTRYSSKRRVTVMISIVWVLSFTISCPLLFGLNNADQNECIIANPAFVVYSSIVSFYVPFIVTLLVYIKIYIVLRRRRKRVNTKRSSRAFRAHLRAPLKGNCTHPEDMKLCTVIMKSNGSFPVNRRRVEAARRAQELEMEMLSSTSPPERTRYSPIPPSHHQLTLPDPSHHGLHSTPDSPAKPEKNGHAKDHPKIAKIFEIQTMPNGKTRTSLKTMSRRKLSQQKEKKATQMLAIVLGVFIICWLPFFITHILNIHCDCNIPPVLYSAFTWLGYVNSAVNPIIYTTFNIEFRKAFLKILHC
Description: Displacement of radioligand from human cloned dopamine D2 receptor
The target of data set [11] is Sodium-dependent serotonin transporter (Rattus norvegicus, UniProt P31652).
Sequence of Sodium-dependent serotonin transporter (Rattus norvegicus, UniProt P31652) (P31652 whole entry): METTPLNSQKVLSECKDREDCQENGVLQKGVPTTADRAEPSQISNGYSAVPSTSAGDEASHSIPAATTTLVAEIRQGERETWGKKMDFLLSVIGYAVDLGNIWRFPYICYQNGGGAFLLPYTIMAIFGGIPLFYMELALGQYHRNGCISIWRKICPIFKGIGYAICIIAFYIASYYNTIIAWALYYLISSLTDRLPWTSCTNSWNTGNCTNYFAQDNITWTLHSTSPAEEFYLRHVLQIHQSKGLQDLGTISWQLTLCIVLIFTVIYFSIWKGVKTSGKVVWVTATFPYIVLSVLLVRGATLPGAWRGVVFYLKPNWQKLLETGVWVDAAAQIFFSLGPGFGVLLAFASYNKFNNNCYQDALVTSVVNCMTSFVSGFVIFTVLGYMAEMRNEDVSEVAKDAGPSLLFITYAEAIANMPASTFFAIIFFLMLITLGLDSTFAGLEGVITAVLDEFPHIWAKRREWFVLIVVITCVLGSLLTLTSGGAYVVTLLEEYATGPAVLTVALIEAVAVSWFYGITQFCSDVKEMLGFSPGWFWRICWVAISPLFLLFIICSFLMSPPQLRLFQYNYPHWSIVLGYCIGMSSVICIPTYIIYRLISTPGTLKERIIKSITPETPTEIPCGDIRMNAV
Description: Inhibition of [3H]5HT uptake at SERT in rat cortical synaptosomes
The target in data set [12] is Sodium-dependent serotonin transporter (Homo sapiens, UniProt P31645). Briefly: Displacement of radioligand from human cloned SERT.
Data set [13] has as its target 5-hydroxytryptamine receptor 6 (Homo sapiens, UniProt P50406). Briefly: Displacement of radioligand from human cloned 5HT6 receptor.
Data set [14] concerns the target 5-hydroxytryptamine receptor 2B (Homo sapiens, UniProt P41595). In words: Displacement of radioligand from human cloned 5HT2B receptor.
Data set [15] is described as follows: Ratio of drug level in brain to blood in rat at 3 mg/kg, po. Format: ADME, organism-based. Set-up: dose 3 mg/kg, route oral. The note with it: read-out: BBR.
The target in data set [16] is T4, Alpha-1B adrenergic receptor (Homo sapiens, UniProt P35368).
T4 sequence (P35368 whole entry): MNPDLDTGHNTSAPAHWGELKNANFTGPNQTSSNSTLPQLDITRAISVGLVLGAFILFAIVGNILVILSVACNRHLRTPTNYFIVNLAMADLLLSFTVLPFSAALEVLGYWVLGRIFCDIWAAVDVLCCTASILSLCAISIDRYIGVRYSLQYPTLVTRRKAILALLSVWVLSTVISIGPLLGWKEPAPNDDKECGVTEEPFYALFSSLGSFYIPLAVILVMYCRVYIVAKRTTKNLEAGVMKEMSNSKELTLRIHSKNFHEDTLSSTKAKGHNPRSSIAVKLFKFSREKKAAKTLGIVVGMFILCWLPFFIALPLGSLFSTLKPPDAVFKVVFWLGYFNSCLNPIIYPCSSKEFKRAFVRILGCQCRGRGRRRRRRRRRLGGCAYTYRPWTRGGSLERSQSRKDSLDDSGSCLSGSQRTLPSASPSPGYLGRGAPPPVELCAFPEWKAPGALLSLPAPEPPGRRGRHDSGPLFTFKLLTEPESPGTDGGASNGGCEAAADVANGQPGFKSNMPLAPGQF
Briefly: Displacement of radioligand from human cloned adrenergic Alpha-1B receptor.

Data set [17] addresses T5, 5-hydroxytryptamine receptor 1D (Homo sapiens, UniProt P28221).
Data set [18] in a line: Cmax in rat brain at 3 mg/kg, po. The data set is classed as ADME, organism-based. Set-up: dose 3 mg/kg, route oral.
Data set [19] has as its target T3, 5-hydroxytryptamine receptor 1B. In words: Displacement of [3H]5HT from human recombinant 5HT1B receptor relative to control. (Loss of bound radioactivity is the signal in a displacement assay; it reports binding, not function.)
In data set [20] the target is T6, 5-hydroxytryptamine receptor 2C (Homo sapiens, UniProt P28335).
T6 sequence (P28335 whole entry): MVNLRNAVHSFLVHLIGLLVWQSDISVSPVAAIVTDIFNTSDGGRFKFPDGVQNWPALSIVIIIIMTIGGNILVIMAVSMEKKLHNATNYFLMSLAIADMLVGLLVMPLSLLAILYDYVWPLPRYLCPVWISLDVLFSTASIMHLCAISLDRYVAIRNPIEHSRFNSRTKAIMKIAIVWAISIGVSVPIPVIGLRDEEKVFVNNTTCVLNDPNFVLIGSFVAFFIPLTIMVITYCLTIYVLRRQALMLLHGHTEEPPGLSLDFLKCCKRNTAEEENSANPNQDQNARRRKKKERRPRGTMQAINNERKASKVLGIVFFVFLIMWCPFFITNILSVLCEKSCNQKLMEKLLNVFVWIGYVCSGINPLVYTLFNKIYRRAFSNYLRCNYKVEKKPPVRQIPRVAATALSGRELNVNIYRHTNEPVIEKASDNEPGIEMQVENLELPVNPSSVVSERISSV
In words: Displacement of radioligand from human cloned 5HT2C receptor.

Data set [21] addresses Beta-2 adrenergic receptor (Homo sapiens, UniProt P07550). In words: Displacement of radioligand from human cloned adrenergic beta2 receptor.
In data set [22] the target is T5, 5-hydroxytryptamine receptor 1D. In words: Displacement of [3H]5HT from human recombinant 5HT1D receptor relative to control.
A short description of data set [23]: Volume of distribution at steady state in rat at 1 mg/kg, iv. Format: ADME, organism-based. Also on record: dose 1 mg/kg, route intravenous. Particulars: in vivo, read-out: Vdss.
Data set [24] addresses 5-hydroxytryptamine receptor 5A (Homo sapiens, UniProt P47898).
Description: Displacement of radioligand from human cloned 5HT5A receptor
Data set [25] has as its system Rattus norvegicus. In words: Reversal of SKF-99101-induced increase in seizure threshold in orally dosed rat by electroshock threshold test. The data set is classed as functional.

The structures appear in SMILES notation.

T5 sequence (P28221 whole entry): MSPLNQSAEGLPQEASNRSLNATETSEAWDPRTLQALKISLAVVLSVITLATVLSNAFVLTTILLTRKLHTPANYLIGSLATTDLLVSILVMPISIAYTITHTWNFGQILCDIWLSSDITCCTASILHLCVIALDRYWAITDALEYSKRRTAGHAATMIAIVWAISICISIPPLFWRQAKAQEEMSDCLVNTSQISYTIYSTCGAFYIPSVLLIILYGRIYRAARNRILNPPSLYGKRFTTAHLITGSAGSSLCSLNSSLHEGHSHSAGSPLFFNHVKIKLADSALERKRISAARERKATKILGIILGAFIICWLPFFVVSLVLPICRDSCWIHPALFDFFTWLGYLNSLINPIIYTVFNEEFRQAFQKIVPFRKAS
Sequence of Beta-2 adrenergic receptor (P07550 whole entry): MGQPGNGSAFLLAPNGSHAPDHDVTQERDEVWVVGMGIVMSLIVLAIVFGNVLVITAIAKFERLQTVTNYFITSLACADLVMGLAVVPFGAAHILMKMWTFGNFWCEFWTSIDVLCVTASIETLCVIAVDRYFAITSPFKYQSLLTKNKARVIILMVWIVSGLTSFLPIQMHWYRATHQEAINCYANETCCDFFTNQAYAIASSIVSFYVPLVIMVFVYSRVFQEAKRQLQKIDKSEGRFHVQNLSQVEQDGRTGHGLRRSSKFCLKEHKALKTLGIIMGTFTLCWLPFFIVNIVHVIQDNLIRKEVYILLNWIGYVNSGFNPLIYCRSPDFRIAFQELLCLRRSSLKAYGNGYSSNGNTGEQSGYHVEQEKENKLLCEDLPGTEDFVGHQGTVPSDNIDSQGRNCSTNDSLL
Sequence of 5-hydroxytryptamine receptor 2A (P28223 whole entry): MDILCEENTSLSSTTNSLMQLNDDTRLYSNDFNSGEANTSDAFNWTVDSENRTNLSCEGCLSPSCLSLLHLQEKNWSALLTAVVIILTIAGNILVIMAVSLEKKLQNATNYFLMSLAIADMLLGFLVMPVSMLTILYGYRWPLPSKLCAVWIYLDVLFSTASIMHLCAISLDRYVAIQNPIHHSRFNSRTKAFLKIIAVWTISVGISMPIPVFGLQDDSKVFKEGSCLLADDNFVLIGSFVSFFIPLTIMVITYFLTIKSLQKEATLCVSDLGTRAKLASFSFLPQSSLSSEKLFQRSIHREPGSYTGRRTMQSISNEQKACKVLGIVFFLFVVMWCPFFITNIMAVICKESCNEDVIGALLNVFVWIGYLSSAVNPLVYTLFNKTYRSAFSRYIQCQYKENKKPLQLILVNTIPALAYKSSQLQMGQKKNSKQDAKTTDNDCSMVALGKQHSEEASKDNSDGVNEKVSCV
Sequence of 5-hydroxytryptamine receptor 5A (P47898 whole entry): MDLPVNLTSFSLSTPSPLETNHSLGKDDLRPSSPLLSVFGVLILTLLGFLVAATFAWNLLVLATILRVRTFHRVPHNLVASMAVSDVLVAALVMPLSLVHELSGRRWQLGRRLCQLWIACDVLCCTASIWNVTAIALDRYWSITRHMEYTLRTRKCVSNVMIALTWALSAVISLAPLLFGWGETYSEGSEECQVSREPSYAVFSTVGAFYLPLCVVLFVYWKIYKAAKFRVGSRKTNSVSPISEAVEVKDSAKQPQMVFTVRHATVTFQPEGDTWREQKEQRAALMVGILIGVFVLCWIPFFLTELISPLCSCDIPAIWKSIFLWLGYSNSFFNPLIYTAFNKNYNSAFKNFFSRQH
Sequence of 5-hydroxytryptamine receptor 2B (P41595 whole entry): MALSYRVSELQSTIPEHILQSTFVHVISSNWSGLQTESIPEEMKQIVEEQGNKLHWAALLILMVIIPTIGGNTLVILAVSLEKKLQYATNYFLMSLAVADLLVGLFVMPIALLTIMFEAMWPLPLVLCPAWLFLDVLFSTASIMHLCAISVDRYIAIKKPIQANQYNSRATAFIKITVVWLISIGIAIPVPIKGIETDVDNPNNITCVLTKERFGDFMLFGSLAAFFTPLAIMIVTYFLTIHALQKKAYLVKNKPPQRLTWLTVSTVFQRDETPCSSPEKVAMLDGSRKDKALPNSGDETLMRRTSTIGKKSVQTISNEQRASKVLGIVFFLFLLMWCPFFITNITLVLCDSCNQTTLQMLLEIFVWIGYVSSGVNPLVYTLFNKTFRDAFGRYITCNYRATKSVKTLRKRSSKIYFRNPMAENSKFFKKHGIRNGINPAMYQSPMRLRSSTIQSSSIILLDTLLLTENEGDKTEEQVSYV

In the case of `Cc1ccc2c(OCCN3CCC(Cc4cccc(N5CCCS5(=O)=O)c4)CC3)cccc2n1`, the Ki is above 6310 nM in data set [1]; 7940 nM in [3]; 7.94 nM in data set [4]; 1000 nM in [5]; 15.8 nM in [6]; 12.6 nM in [7]. Moreover, the Ki in data set [8] was above 10000 nM; in [10] it was 501 nM; in [11], 794 nM; in [12] it was 398 nM; in data set [13], 1580 nM; in data set [14], above 1000 nM. For the same compound, the Ki in [16] is 158 nM; in data set [17], 1.58 nM; in data set [20], above 3980 nM; in [21] it was 1580 nM; in [24] it was 1580 nM. Further, the half-life in data set [2] was 54 min. The compound further gave a clearance in [9] of 39 mL/min/kg. The Kp in data set [15] was found to be 0.9. In data set [18], this compound displayed a Cmax of 287 ng/g. For the same compound, the Intrinsic activity in data set [19] is 0.5; in data set [22] it was 0.4. The Vd in [23] amounted to 0.9 L/kg.

Regarding `Cc1ccc2c(OCCN3CCC(Cc4cccc(NS(C)(=O)=O)c4)CC3)cccc2n1`, the Ki was 2510 nM in data set [1]; above 10000 nM in [3]; 2.51 nM in data set [4]; 501 nM in [5]; 20 nM in [6]; 2 nM in data set [7]. Moreover, the Ki is 2510 nM in data set [8]; 63.1 nM in data set [10]; 1000 nM in data set [11]; 1580 nM in data set [12]; above 10000 nM in data set [13]; 2000 nM in [14]. Besides, the Ki was 200 nM in data set [16]; 0.501 nM in data set [17]; above 1000 nM in [20]; 501 nM in data set [21]; 1260 nM in data set [24]. In addition, the half-life in [2] is 36 min. Moreover, in data set [9], the clearance worked out at 38 mL/min/kg. Further, in [25], the Activity entry was “Dose-dependent effect”. Further, the Kp in [15] came to 0.2. Also, the Cmax in data set [18] came out at 346 ng/g. The Intrinsic activity in data set [19] was 0.3. Also, in [23], the Vd was determined as 1.6 L/kg.

Broadly, the Ki is the equilibrium dissociation constant of an inhibitor or competing ligand from its target. Low values mean tighter binding, high ones weaker binding. As usually defined, the half-life is the time in which the quantity being followed falls by half. The term clearance denotes the rate of elimination divided by the concentration. Low readings indicate inefficient removal, high ones efficient removal. As usually defined, the Cmax is the highest concentration seen after dosing.

For the origin of these results see ChEMBL document CHEMBL1150291, “Discovery of potent, orally bioavailable, selective 5-HT1A/B/D receptor antagonists” (J Med Chem, 2008).
